Measurements: the kinase profiling compilation of Christmann-Franck et al. (2016)

Experiments:
Settings in all cases: compound 10.0 µM
BTK (human) = BTK (human) (UniProt Q06187)
STK33 (human) = STK33 (human) (UniProt Q9BYT3)
CDK6 CCND3 (human) = CDK6 CCND3 (human) (UniProt Q00534+P30281)
NEK2 (human) = NEK2 (human) (UniProt P51955)
PASK (human) = PASK (human) (UniProt Q96RG2)
FLT4 (human) = FLT4 (human) (UniProt P35916)
SGK1 (human) = SGK1 (human) (UniProt O00141)
HIPK3 (human) = HIPK3 (human) (UniProt Q9H422)
GRK7 (human) = GRK7 (human) (UniProt Q8WTQ7)
WEE1 (human) = WEE1 (human) (UniProt P30291)
EPHA8 (human) = EPHA8 (human) (UniProt P29322)
STK10 (human) = STK10 (human) (UniProt O94804)
EPHB4 (human) = EPHB4 (human) (UniProt P54760)
ROCK2 (human) = ROCK2 (human) (UniProt O75116)
STK11 (human) = STK11 (human) (UniProt Q15831)
PRKCA (human) = PRKCA (human) (UniProt P17252)
RPS6KA3 KD1 KD2 (human) = RPS6KA3 KD1 KD2 (human) (UniProt P51812)
MAPK11 (human) = MAPK11 (human) (UniProt Q15759)
IRAK4 (human) = IRAK4 (human) (UniProt Q9NWZ3)
PRKD2 (human) = PRKD2 (human) (UniProt Q9BZL6)
RET (human) = RET (human) (UniProt P07949)
OXSR1 (human) = OXSR1 (human) (UniProt O95747)
GSK3B (human) = GSK3B (human) (UniProt P49841)
EPHB3 (human) = EPHB3 (human) (UniProt P54753)
CAMK2G (human) = CAMK2G (human) (UniProt Q13555)
DSTYK (human) = DSTYK (human) (UniProt Q6XUX3)
PIM2 (human) = PIM2 (human) (UniProt Q9P1W9)
Chain of PIM2 (human) (Q9P1W9 whole entry, looked up): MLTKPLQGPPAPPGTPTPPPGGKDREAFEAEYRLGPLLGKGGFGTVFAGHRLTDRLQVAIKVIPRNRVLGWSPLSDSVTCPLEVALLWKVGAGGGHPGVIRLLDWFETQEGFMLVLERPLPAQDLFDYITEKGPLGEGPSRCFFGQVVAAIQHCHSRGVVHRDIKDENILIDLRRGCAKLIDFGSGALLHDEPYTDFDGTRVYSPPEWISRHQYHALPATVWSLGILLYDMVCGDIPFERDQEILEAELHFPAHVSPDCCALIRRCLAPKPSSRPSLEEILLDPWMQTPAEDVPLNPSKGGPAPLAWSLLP

MAP3K2 (human) = MAP3K2 (human) (UniProt Q9Y2U5)
GRK6 (human) = GRK6 (human) (UniProt P43250)
ACVR1B (human) = ACVR1B (human) (UniProt P36896)
CAMK2A (human) = CAMK2A (human) (UniProt Q9UQM7)
Chain of CAMK2A (human) (Q9UQM7 whole entry, looked up): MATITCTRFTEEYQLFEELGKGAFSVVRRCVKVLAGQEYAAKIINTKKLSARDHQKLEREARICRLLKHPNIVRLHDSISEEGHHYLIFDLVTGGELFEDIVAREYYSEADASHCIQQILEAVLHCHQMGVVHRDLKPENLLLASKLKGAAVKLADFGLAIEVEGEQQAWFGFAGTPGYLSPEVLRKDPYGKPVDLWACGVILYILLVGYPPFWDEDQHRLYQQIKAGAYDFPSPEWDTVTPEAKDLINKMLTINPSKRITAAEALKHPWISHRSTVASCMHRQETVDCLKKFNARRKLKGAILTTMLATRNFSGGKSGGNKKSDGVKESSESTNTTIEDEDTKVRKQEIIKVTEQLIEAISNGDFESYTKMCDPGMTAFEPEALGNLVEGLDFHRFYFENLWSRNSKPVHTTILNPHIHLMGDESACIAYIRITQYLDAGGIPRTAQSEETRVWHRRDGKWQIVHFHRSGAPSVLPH

CAMK1G (human) = CAMK1G (human) (UniProt Q96NX5)
ABL1 (human) = ABL1 (human) (UniProt P00519)
PRKCE (human) = PRKCE (human) (UniProt Q02156)
NTRK2 (human) = NTRK2 (human) (UniProt Q16620)
Chain of NTRK2 (human) (Q16620 whole entry, looked up): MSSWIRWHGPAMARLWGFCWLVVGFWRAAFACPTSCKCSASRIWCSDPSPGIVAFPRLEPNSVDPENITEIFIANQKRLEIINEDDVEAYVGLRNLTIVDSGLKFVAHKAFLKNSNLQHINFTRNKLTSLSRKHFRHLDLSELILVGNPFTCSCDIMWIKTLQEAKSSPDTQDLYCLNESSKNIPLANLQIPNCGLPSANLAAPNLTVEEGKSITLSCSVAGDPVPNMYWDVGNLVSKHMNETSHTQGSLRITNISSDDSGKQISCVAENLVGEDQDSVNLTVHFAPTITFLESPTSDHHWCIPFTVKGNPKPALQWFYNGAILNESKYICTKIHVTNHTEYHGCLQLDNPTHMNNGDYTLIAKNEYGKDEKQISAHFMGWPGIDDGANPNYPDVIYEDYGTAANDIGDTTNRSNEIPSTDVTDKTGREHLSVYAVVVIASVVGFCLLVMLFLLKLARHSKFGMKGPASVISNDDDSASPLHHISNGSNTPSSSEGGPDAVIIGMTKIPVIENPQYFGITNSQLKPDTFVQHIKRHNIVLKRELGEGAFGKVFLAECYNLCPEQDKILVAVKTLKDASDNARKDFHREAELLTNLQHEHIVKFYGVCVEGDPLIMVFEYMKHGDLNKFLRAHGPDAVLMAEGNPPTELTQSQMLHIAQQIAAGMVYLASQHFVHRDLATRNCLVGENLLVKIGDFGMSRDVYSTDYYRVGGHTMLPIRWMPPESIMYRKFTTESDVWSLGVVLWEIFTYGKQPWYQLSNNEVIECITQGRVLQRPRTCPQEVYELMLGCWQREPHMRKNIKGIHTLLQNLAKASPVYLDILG

AURKC (human) = AURKC (human) (UniProt Q9UQB9)
GSG2 (human) = GSG2 (human) (UniProt Q8TF76)
SRC (human) = SRC (human) (UniProt P12931)
MAP3K10 (human) = MAP3K10 (human) (UniProt Q02779)
PDGFRA (human) = PDGFRA (human) (UniProt P16234)
IRAK1 (human) = IRAK1 (human) (UniProt P51617)
LTK (human) = LTK (human) (UniProt P29376)
Chain of LTK (human) (P29376 whole entry, looked up): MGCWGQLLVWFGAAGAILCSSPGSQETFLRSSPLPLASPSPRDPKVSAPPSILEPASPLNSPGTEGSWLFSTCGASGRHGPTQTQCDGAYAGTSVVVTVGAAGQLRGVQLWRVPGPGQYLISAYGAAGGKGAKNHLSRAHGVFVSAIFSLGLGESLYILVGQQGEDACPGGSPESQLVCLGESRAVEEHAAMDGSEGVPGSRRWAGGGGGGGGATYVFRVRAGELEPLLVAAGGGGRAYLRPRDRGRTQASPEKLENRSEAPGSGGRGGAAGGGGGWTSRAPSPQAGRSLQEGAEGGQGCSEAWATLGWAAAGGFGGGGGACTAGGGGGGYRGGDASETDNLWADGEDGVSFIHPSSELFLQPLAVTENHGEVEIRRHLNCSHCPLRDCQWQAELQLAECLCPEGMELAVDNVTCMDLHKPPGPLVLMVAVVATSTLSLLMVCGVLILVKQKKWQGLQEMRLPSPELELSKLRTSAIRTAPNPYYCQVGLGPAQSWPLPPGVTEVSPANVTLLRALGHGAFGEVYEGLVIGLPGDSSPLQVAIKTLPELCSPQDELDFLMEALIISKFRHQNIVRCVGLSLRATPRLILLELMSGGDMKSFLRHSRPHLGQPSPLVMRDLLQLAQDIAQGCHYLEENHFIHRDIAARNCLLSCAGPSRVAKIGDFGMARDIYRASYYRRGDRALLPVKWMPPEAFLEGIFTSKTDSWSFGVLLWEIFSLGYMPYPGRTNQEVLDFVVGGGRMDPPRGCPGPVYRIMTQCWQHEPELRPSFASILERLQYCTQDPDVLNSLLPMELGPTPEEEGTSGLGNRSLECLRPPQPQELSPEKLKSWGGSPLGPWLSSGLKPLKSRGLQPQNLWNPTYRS

ADRBK2 (human) = ADRBK2 (human) (UniProt P35626)
MARK1 (human) = MARK1 (human) (UniProt Q9P0L2)

Chain of CDK6 CCND3 (human) (P30281 whole entry, looked up): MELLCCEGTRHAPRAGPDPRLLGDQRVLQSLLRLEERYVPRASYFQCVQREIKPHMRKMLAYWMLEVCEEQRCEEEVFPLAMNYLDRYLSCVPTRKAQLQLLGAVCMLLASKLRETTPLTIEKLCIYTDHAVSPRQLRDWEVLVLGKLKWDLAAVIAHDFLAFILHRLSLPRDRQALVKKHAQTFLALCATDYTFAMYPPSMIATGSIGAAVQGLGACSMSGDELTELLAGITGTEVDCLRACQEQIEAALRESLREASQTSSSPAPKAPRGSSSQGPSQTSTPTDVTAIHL
Chain of CDK6 CCND3 (human) (Q00534 whole entry, looked up): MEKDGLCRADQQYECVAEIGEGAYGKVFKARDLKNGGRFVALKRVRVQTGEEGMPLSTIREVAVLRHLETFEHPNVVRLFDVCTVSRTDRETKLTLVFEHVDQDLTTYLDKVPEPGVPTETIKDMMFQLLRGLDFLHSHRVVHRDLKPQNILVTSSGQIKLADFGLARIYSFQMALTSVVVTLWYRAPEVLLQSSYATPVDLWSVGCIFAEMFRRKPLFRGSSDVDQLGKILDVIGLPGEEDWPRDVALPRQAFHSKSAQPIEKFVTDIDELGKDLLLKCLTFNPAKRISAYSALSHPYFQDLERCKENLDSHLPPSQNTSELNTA
Chain of STK33 (human) (Q9BYT3 whole entry, looked up): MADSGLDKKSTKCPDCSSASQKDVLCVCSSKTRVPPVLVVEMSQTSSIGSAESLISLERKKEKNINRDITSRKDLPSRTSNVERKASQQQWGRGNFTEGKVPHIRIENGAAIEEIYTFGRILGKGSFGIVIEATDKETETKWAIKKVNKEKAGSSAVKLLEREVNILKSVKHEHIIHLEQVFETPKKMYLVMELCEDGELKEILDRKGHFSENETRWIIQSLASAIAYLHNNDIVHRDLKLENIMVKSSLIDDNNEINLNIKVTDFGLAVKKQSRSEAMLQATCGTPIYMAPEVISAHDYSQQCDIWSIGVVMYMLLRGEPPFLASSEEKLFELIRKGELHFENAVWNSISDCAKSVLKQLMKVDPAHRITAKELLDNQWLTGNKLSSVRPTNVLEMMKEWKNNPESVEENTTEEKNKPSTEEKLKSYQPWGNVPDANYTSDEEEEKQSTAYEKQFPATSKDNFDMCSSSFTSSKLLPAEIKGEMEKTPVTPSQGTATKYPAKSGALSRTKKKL
Chain of FLT4 (human) (P35916 whole entry, looked up): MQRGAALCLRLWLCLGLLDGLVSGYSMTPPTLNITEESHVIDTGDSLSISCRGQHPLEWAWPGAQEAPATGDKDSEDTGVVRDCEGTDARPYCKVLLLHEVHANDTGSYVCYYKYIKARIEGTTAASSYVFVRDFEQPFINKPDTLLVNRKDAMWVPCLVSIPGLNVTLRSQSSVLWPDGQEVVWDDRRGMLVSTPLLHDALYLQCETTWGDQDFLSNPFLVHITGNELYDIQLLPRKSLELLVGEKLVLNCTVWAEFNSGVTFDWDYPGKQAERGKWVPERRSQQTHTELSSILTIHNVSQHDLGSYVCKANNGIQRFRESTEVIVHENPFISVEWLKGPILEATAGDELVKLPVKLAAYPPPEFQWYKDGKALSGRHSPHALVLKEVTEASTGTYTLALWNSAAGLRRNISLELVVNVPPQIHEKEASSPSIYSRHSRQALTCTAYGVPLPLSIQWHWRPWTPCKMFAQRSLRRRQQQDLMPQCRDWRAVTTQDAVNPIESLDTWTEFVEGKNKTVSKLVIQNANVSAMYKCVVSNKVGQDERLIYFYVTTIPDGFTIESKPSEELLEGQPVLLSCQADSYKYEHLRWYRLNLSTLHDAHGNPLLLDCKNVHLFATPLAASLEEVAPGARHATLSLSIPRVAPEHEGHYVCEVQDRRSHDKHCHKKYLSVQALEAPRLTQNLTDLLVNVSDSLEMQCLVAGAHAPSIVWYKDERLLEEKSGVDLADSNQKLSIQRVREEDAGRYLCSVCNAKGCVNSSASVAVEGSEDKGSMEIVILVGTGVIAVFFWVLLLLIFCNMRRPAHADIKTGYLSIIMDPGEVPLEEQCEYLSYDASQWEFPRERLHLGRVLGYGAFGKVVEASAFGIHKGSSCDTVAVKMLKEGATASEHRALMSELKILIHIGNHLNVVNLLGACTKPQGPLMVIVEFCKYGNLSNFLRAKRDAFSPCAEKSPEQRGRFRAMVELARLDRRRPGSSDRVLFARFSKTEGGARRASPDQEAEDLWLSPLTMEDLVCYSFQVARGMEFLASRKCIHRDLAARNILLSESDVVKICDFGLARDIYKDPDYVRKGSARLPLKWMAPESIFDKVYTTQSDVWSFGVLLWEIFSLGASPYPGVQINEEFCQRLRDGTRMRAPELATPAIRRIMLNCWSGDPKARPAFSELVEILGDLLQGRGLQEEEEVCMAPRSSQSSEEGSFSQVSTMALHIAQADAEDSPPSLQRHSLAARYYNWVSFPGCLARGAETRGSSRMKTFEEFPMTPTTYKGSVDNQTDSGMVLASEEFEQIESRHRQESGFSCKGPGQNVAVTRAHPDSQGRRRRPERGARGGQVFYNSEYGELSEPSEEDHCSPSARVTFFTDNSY

CC[C@H](C)n1cc(C)c2c(C(=O)NCc3c(C)cc(C)[nH]c3=O)cc(-c3ccc(N4CCNCC4)nc3)cc21
residual activity (BTK (human)): 103% | residual activity (STK33 (human)): 94.5% | residual activity (CDK6 CCND3 (human)): 102% | residual activity (NEK2 (human)): 103% | residual activity (PASK (human)): 90.5% | residual activity (FLT4 (human)): 82.5% | residual activity (SGK1 (human)): 99% | residual activity (HIPK3 (human)): 100% | residual activity (GRK7 (human)): 97.5% | residual activity (WEE1 (human)): 100% | residual activity (EPHA8 (human)): 89% | residual activity (STK10 (human)): 90% | residual activity (EPHB4 (human)): 95% | residual activity (ROCK2 (human)): 98.5% | residual activity (STK11 (human)): 106% | residual activity (PRKCA (human)): 106% | residual activity (RPS6KA3 KD1 KD2 (human)): 90.5% | residual activity (MAPK11 (human)): 102% | residual activity (IRAK4 (human)): 107% | residual activity (PRKD2 (human)): 98% | residual activity (RET (human)): 98.5% | residual activity (OXSR1 (human)): 92.5% | residual activity (GSK3B (human)): 96% | residual activity (EPHB3 (human)): 92.5% | residual activity (CAMK2G (human)): 99.5% | residual activity (DSTYK (human)): 97.5% | residual activity (PIM2 (human)): 99% | residual activity (MAP3K2 (human)): 100% | residual activity (GRK6 (human)): 104% | residual activity (ACVR1B (human)): 98.5% | residual activity (CAMK2A (human)): 104% | residual activity (CAMK1G (human)): 84% | residual activity (ABL1 (human)): 84% | residual activity (PRKCE (human)): 99.5% | residual activity (NTRK2 (human)): 99% | residual activity (AURKC (human)): 101% | residual activity (GSG2 (human)): 98% | residual activity (SRC (human)): 83.5% | residual activity (MAP3K10 (human)): 103% | residual activity (PDGFRA (human)): 99.5% | residual activity (IRAK1 (human)): 97% | residual activity (LTK (human)): 102% | residual activity (ADRBK2 (human)): 105% | residual activity (MARK1 (human)): 95.5%
